Results reported in article PMC10568461, “A pilot study of cerebral metabolism and serotonin 5-HT2A receptor occupancy in rats treated with the psychedelic tryptamine DMT in conjunction with the MAO inhibitor harmine” (Frontiers in Pharmacology, 2023).

What was measured:
[1] = Brain concentrations of harmine, DMT and metabolites by UHPLC-MS after s.c. harmine and/or DMT; conditions: for concentration at 95 min / concentration at 65 min: rat, subcutaneous
Method: Groups of (n = 6) rats received either saline, harmine (1 mg/kg), DMT (1 mg/kg), or harmine + DMT (1 mg/kg each) as subcutaneous injections, as indicated in Figure 1.
After 45 min, rats were sacrificed by decapitation, and the brains dissected into cerebellum and frontal cortex samples for radioactivity measurement and chemical analysis, thus 65 min after harmine + DMT.

5-HT2A receptors = conditions: cited from earlier work
MAO-A [2] = target: T1, MAO-A (Rattus norvegicus, UniProt P21396); parameters: method as in Maschauer et al., 2015; conditions: ref Maschauer et al., 2015; read-out: Apparent affinity (KD) at MAO-binding sites in living rat brain; cited from earlier work
T1 sequence (P21396 1-526): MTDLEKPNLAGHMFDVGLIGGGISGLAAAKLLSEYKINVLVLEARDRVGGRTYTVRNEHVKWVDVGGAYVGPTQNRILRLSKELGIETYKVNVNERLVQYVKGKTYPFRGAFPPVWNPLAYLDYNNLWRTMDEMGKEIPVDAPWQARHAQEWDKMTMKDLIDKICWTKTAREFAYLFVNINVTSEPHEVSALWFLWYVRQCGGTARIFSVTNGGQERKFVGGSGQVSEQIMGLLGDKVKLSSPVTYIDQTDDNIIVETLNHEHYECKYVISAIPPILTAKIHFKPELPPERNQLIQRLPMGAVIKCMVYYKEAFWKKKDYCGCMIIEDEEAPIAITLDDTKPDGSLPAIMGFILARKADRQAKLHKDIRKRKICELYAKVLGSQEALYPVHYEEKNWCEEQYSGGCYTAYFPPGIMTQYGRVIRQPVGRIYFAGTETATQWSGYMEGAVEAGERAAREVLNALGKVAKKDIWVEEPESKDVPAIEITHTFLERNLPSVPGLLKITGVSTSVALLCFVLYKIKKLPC

MAO-A [3] = conditions: ref Maschauer et al., 2015; read-out: KD in vitro; cited from earlier work
MAO-A [4] = target: T1, MAO-A; assay: Apparent affinity at MAO binding sites in living brain; format: in vivo; conditions: from values of ref Maschauer et al., 2015
[5] = Exp 1, group DMT, average of regions
[6] = Exp 1, group Har + DMT, average of regions
[7] = Exp 1, group Har + DMT, cerebellum
[8] = Exp 1, group Har + DMT, front cort
[9] = Exp 2, group Har + DMT, average of regions
[10] = Exp 2, group Har + DMT, cerebellum
[11] = Exp 2, group Har + DMT, front cort
[12] = brain (average of frontal cortex and cerebellum), 1 mg/kg, Molar concentration, Exp 1, group DMT, average of regions
[13] = brain (average of frontal cortex and cerebellum), Molar concentration, Exp 1, group Har + DMT, average of regions
[14] = brain (average of frontal cortex and cerebellum), Molar concentration, Exp 2, group Har + DMT, average of regions
[15] = cerebellum, 1 mg/kg, Molar concentration, Exp 1, group DMT, cerebellum
[16] = cerebellum, Molar concentration, Exp 1, group Har + DMT, cerebellum
[17] = cerebellum, Molar concentration, Exp 2, group Har + DMT, cerebellum
[18] = frontal cortex, 1 mg/kg, Molar concentration, Exp 1, group DMT, front cort
[19] = frontal cortex, Molar concentration, Exp 1, group Har + DMT, front cort
[20] = frontal cortex, Molar concentration, Exp 2, group Har + DMT, front cort

O=C(O)Cc1c[nH]c2ccccc12 [3-IAA, indole-3-acetic acid]
Percentage of total molar concentration of DMT and metabolites [1, 5]: 97.5%
Percentage of total molar concentration of DMT and metabolites ([1]; Exp 1, group DMT, cerebellum): 97.9%
Percentage of total molar concentration of DMT and metabolites ([1]; Exp 1, group DMT, front cort): 97.3%
Percentage of total molar concentration of DMT and metabolites [1, 6]: 64.7%
Percentage of total molar concentration of DMT and metabolites [1, 7]: 65.3%
Percentage of total molar concentration of DMT and metabolites [1, 8]: 64.2%
Percentage of total molar concentration of DMT and metabolites [1, 9]: 25.9%
Percentage of total molar concentration of DMT and metabolites [1, 10]: 27.5%
Percentage of total molar concentration of DMT and metabolites [1, 11]: 24.7%
Brain concentration ([1]; Experiment 1, cerebellum, group DMT (1 mg/kg s.c.), 95 min, mean (SD)): 398.5 (128.3) ng/g
Brain concentration ([1]; Experiment 1, cerebellum, group Har + DMT (1 mg/kg each s.c.), 95 min, mean (SD)): 194.1 (117.2) ng/g
Brain concentration ([1]; Experiment 1, frontal cortex, group DMT (1 mg/kg s.c.), 95 min, mean (SD)): 503.9 (137.7) ng/g
Brain concentration ([1]; Experiment 1, frontal cortex, group Har + DMT (1 mg/kg each s.c.), 95 min, mean (SD)): 257.5 (103.6) ng/g
Lower cerebral 3-IAA concentration after co-administration of harmine and DMT ([1]; Experiment 1, versus DMT alone): 50%
Brain concentration ([1]; Experiment 2, cerebellum, group Har + DMT (3 mg/kg each s.c.), 65 min, mean (SD)): 530.7 (129.8) ng/g
Brain concentration ([1]; Experiment 2, frontal cortex, group Har + DMT (3 mg/kg each s.c.), 65 min, mean (SD)): 652.1 (186.5) ng/g
concentration at 95 min [1, 12]: 2580 nM
concentration at 95 min [1, 13]: 1290 nM
concentration at 65 min [1, 14]: 3380 nM
concentration at 95 min ([1]; cerebellum, 1 mg/kg, Brain concentration, Experiment 1, cerebellum, after DMT alone (1 mg/kg)): 2300 nM
concentration at 95 min ([1]; cerebellum, 1 mg/kg, Brain concentration, Experiment 1, cerebellum, group DMT (1 mg/kg s.c.), 95 min, mean (SD)): 398 ng/g
concentration at 95 min [1, 15]: 2270 nM
concentration at 95 min ([1]; cerebellum, Brain concentration, Experiment 1, cerebellum, after harmine + DMT (1 mg/kg each)): 1100 nM
concentration at 95 min ([1]; cerebellum, Brain concentration, Experiment 1, cerebellum, group Har (harmine 1 mg/kg s.c.), 95 min after drug, mean (SD)): 11.1 ng/g
concentration at 95 min ([1]; cerebellum, Brain concentration, Experiment 1, cerebellum, group Har + DMT (1 mg/kg each s.c.), 95 min, mean (SD)): 194 ng/g
concentration at 65 min ([1]; cerebellum, Brain concentration, Experiment 2, cerebellum, after harmine + DMT (3 mg/kg each)): 3000 nM
concentration at 65 min ([1]; cerebellum, Brain concentration, Experiment 2, cerebellum, group Har + DMT (3 mg/kg each s.c.), 65 min, mean (SD)): 531 ng/g
concentration at 95 min [1, 16]: 1110 nM
concentration at 65 min [1, 17]: 3030 nM
concentration at 95 min ([1]; frontal cortex, 1 mg/kg, Brain concentration, Experiment 1, frontal cortex, after DMT alone (1 mg/kg)): 2900 nM
concentration at 95 min ([1]; frontal cortex, 1 mg/kg, Brain concentration, Experiment 1, frontal cortex, group DMT (1 mg/kg s.c.), 95 min, mean (SD)): 504 ng/g
concentration at 95 min [1, 18]: 2880 nM
concentration at 95 min ([1]; frontal cortex, Brain concentration, Experiment 1, frontal cortex, after harmine + DMT (1 mg/kg each), 95 min): 1500 nM
concentration at 95 min ([1]; frontal cortex, Brain concentration, Experiment 1, frontal cortex, group Har (harmine 1 mg/kg s.c.), 95 min, mean (SD)): 14.1 ng/g
concentration at 95 min ([1]; frontal cortex, Brain concentration, Experiment 1, frontal cortex, group Har + DMT (1 mg/kg each s.c.), 95 min, mean (SD)): 258 ng/g
concentration at 65 min ([1]; frontal cortex, Brain concentration, Experiment 2, frontal cortex, after harmine + DMT (3 mg/kg each), 65 min): 3700 nM
concentration at 65 min ([1]; frontal cortex, Brain concentration, Experiment 2, frontal cortex, group Har + DMT (3 mg/kg each s.c.), 65 min, mean (SD)): 652 ng/g
concentration at 95 min [1, 19]: 1470 nM
concentration at 65 min [1, 20]: 3720 nM

CNCCc1c[nH]c2ccccc12 [NMT, N-methyltryptamine]
Percentage of total molar concentration of DMT and metabolites [1, 5]: 0.0%
Percentage of total molar concentration of DMT and metabolites ([1]; Exp 1, group DMT, cerebellum): 0.0%
Percentage of total molar concentration of DMT and metabolites ([1]; Exp 1, group DMT, front cort): 0.0%
Percentage of total molar concentration of DMT and metabolites [1, 6]: 0.1%
Percentage of total molar concentration of DMT and metabolites [1, 7]: 0.1%
Percentage of total molar concentration of DMT and metabolites [1, 8]: 0.0%
Percentage of total molar concentration of DMT and metabolites [1, 9]: 0.1%
Percentage of total molar concentration of DMT and metabolites [1, 10]: 0.2%
Percentage of total molar concentration of DMT and metabolites [1, 11]: 0.1%
concentration at 95 min [1, 12]: 0.15 nM
concentration at 95 min [1, 13]: 1.14 nM
concentration at 65 min [1, 14]: 15.9 nM
concentration at 95 min [1, 15]: 0.15 nM
concentration at 95 min [1, 16]: 1.38 nM
concentration at 65 min [1, 17]: 20.7 nM
concentration at 95 min [1, 18]: 0.16 nM
concentration at 95 min [1, 19]: 0.89 nM
concentration at 65 min [1, 20]: 11.2 nM

C[N+](C)([O-])CCc1c[nH]c2ccccc12 [DMT-N-Oxide, DMT-N-oxide]
Molar concentration [1, 5]: 3.29 nmol/L
Percentage of total molar concentration of DMT and metabolites [1, 5]: 0.1%
Molar concentration ([1]; Exp 1, group DMT, cerebellum): 3.16 nmol/L
Percentage of total molar concentration of DMT and metabolites ([1]; Exp 1, group DMT, cerebellum): 0.1%
Molar concentration ([1]; Exp 1, group DMT, front cort): 3.43 nmol/L
Percentage of total molar concentration of DMT and metabolites ([1]; Exp 1, group DMT, front cort): 0.1%
Molar concentration [1, 6]: 27.52 nmol/L
Percentage of total molar concentration of DMT and metabolites [1, 6]: 1.4%
Molar concentration [1, 7]: 30.49 nmol/L
Percentage of total molar concentration of DMT and metabolites [1, 7]: 1.8%
Molar concentration [1, 8]: 24.54 nmol/L
Percentage of total molar concentration of DMT and metabolites [1, 8]: 1.1%
Molar concentration [1, 9]: 90.73 nmol/L
Percentage of total molar concentration of DMT and metabolites [1, 9]: 0.7%
Molar concentration [1, 10]: 131.9 nmol/L
Percentage of total molar concentration of DMT and metabolites [1, 10]: 1.2%
Molar concentration [1, 11]: 49.57 nmol/L
Percentage of total molar concentration of DMT and metabolites [1, 11]: 0.3%

CN(C)CCc1c[nH]c2cccc(OP(=O)(O)O)c12 [psilocybin]
Occupancy at 5-HT2A receptors (5-HT2A receptors; PET with [^11C]Cimbi-36, ref Madsen et al., 2019): ≤ 70%
Occupancy at 5-HT2A receptors in human frontal cortex (5-HT2A receptors; PET with [^18F]altanserin, ref Hasler et al., 2009a): ≤ 35%

Cc1nccc2c1[nH]c1cc(OCCF)ccc12 [[^18F]fluoroethyl-harmol]
Kd (MAO-A [2]): 300 nM
Kd (MAO-A [3]): 2 nM

Cc1nccc2c1[nH]c1cc(OCC[18F])ccc12 [[^18F]fluoroethyl-harmol]
In vitro/in vivo affinity difference (MAO-A [4]): 150 fold
